{
  "source": "patent US20260248833A1",
  "about": "“PYRIMIDINE NUCLEOSIDE TREATMENTS” (The Children`s Medical Center Corporation, priority 2022, published 2026)",
  "key": {"[1]": {"system": "pCHK1-S345 and pRPA32-S33", "assay": "Immunoblot of replication stress signaling in super-telomerase cells", "assay_type": "cell-based, human"}, "human HSPCs": {"system": "human HSPCs", "assay": "TRF telomere length of HSPCs", "assay_type": "cell-based", "details": "HSPCs treated with dT for 7 days (FIG. 19)", "method": "(§1) Terminal Restriction Fragment Length Analysis: genomic DNA was isolated from cells using the Invitrogen Purelink Genomic DNA mini kit (Invitrogen). 1-3 μg of gDNA was digested with RsaI and HinfI for 2-3 hrs at 37° C. and loaded onto a 0.6% agarose gel followed by Southern blotting using the Telotaggg Telomere Length Assay Kit (Roche). Quantification was performed using the WALTER webtool."}, "293T cells [2]": {"system": "293T cells", "assay": "Cell growth curves by hemocytometry, 293T cells", "assay_type": "cell-based", "method": "Quantification of cell growth was performed using hemocytometry with trypan blue staining to identify dead cells. For growth curves, 50k cells were plated per 12 well or 100k cells were plated per 6 well and cells were passaged when confluent, counted using a hemocytometer, and replated at equal numbers in fresh media."}, "[3]": {"system": "super-telomerase cells (TERC-null 293T cells transfected with TERT and TERC)", "assay": "Cell cycle analysis by DAPI staining and flow cytometry, super-telomerase cells", "assay_type": "cell-based, human", "details": "40 μM dT", "method": "(§2) Cell cycle analysis by DNA content staining and flow cytometry: Cells were prepared either for flow-FISH staining as described (for experiments in FIG. 5) or by ethanol fixation (for data in FIG. 6, 27), followed by rehydration and counterstaining using DAPI (BD Biosciences) and analysis on an LSR-II or Fortessa analyzer (BD Biosciences) using BD FACSDiva 8.0.2. Cells were gated on FSC/SSC as described in FIG. 6d using FlowJo V10.7.1."}, "primary fibroblasts": {"system": "primary fibroblasts", "assay": "Telomere lengthening from dT with TERT expression in primary fibroblasts", "assay_type": "cell-based", "details": "primary fibroblasts (FIG. 30A)"}, "K562 cells": {"system": "K562 cells", "assay": "Terminal restriction fragment (TRF) Southern blot telomere length, K562 cells", "assay_type": "cell-based, human", "method": "(§3) Cell culture: K562 cells (ATCC) were grown in RPMI1 1640 (Gibco) media supplemented with 10% fetal bovine serum. 293T cells (ATCC) were grown in DMEM (Gibco) supplemented with 10% fetal bovine serum, and were subcultured using 0.05% trypsin (Gibco). iPSCs were derived, characterized and cultured as previously described. iPSCs were grown in Essential 8 Media (Life Technologies) supplemented with the ROCK inhibitor Y271632 (Stem Cell Technologies) at 10 μM on plates coated with hES qualitied Matrigel matrix (Corning) and were subcultured using Accutase (Stem Cell Technologies).\nas §1"}, "wild-type iPSCs": {"system": "wild-type iPSCs", "assay": "Cell cycle analysis by DAPI staining and flow cytometry, iPSCs", "assay_type": "cell-based, human", "details": "24 hours", "method": "as §2"}, "293T cells [4]": {"system": "293T cells", "assay": "Terminal restriction fragment (TRF) Southern blot telomere length, 293T cells", "assay_type": "cell-based, human", "method": "as §3, §1"}, "[5]": {"system": "mouse model of TK2 deficiency", "details": "520 mg/kg/day of dT; cited from earlier work"}, "cell cycle progression": {"system": "cell cycle progression", "details": "cited from earlier work"}, "[6]": {"system": "TERC−/− 293T cells stably expressing dmDNK", "assay": "Telomere DNA content blot in dmDNK expressing cells", "assay_type": "cell-based, human", "details": "TERT and TERC transfected, nucleoside 24-30 hrs, versus eGFP control", "source_text": "Combining thymidine treatment with expression of a nucleoside kinase to improve efficiency of nucleoside uptake and thereby promote telomere lengthening. combining nucleoside treatment with the expression of TK1, or the deoxynucleoside kinase from Drosophila (dmDNK), either of which can be delivered via mRNA. See FIG. 29A-B. TERC-/- 293T cells stably expressing dmDNK or eGFP (control) were transfected with vectors to express […], then cultured in the indicated doses of nucleoside, followed by analysis of telomere DNA content via blotting and detection with a complementary oligonucleotide probe."}, "[7]": {"system": "T-free super-telomerase expressing cells (293T TERC-null)", "assay": "Slot blot of GGAAAG repeat content in cellular DNA", "assay_type": "cell-based, human", "method": "Slot blotting: slot blotting was performed as described with minor modifications. Briefly, DNA concentration was normalized to 20 ng/μl using a nanodrop spectrophotometer. 3.3 μl of DNA was added to 16.5 μl of denaturation solution (0.5 M NaOH, 1.5 M NaCl) and heated to 55° C. for 30 minutes. 495 μl of neutralization solution (0.5 M Tris-HCl, 1.5 M NaCl) was added to denatured DNA and 156 μl of this solution was added in triplicate to different slots on a Bio-Dot SF Apparatus (Bio-Rad) and blotted onto Hybond N+ Membrane (Cytivia). Membrane preparation and washing was performed as described. For samples with paired GGTTAG and GGAAAG slot blots, the above recipe was doubled, and 156 μl was loaded onto parallel membranes in triplicate on each membrane. After blotting, membranes were hybridized and detected as described above for TRF Southern blots using the probe indicated in the figure. Blots were analyzed using ImageJ. Statistical analysis was performed using Graphpad prism V9.1.0."}, "[8]": {"details": "increasing doses of dT (FIG. 8a)"}},
  "note": "“Also recorded” adds a separate entry of the source.",
  "data": [
    {"smiles": "Cc1cn([C@H]2C[C@H](O)[C@@H](CO)O2)c(=O)[nH]c1=O", "note": "[dT, 1-[(2R,4S,5R)-4-Hydroxy-5-(hydroxymethyl)oxolan-2-yl]-5-methylpyrimidine-2,4 (1H,3H)-dione]", "values": [
      {"measurement": "replication stress signaling at the telomere-active dose", "setting": "[1]; 40 μM dT", "value": "far below doses that induce replication stress signaling"},
      {"measurement": "replication stress signaling", "setting": "[1]; highest doses, 30 hours", "value": "induced similar levels of replication stress signaling"},
      {"measurement": "telomere length", "setting": "human HSPCs", "value": "lengthens telomeres in human HSPCs after just 7 days"},
      {"measurement": "cellular growth", "setting": "293T cells [2]; 20 or 40 μM dT, 34 days", "value": "undetectable changes in cellular growth curves; also recorded: undetectable impact on cellular growth"},
      {"measurement": "dose at which inhibition of growth was detected", "setting": "293T cells [2]; [8]", "value": "≥ 50", "unit": "µM"},
      {"measurement": "doses at which growth was minimally impacted", "setting": "293T cells [2]; [8]", "value": "below 100 μM"},
      {"measurement": "cell cycle progression at the telomere-active dose", "setting": "[3]", "value": "below those that significantly impacted cell cycle progression"},
      {"measurement": "telomere lengthening from dT with expression of TERT", "setting": "primary fibroblasts", "value": "expression of TERT can increase telomere lengthening from dT"},
      {"measurement": "thymidine doses driving robust telomere length increases", "setting": "K562 cells; 34 days of culture in low dose thymidine (FIGS. 2L and 2N)", "value": "≥ 5", "unit": "µM"},
      {"measurement": "doses leading to robust telomere elongation in less than 10 days", "setting": "K562 cells; K562 cells", "value": "≥ 50", "unit": "µM"},
      {"measurement": "telomere length", "setting": "K562 cells; K562 cells, 100 μM of the indicated deoxynucleoside(s) for 8 days", "value": "rapidly and robustly increases telomere length; also recorded: promoted telomere lengthening, as did dT alone"},
      {"measurement": "telomere lengthening following dT with dNTPase-deficient SAMHD1 H215A or K312A variants", "setting": "K562 cells; K562 cells, 10 days", "value": "could not restrict telomere lengthening following dT supplementation"},
      {"measurement": "telomere lengthening following dT treatment with overexpression of wild-type SAMHD1", "setting": "K562 cells; K562 cells, 10 days, compared to EGFP control", "value": "reduced telomere lengthening following dT treatment"},
      {"measurement": "lowest dT dose giving robust telomere lengthening without growth change", "setting": "K562 cells; K562 cells, 34 days", "value": "≥ 5", "unit": "µM"},
      {"measurement": "telomere lengthening upon dT treatment in TK1-edited cells", "setting": "K562 cells; K562 cells, CRISPR/Cas9 TK1 edited, 10 days", "value": "complete abrogation of the telomere lengthening"},
      {"measurement": "telomere lengthening upon dT treatment in TK2-edited cells", "setting": "K562 cells; K562 cells, CRISPR/Cas9 TK2 edited, 10 days", "value": "no difference in telomere length increases compared to control AAVS1-targeted cells"},
      {"measurement": "telomere elongation, increase of base pairs (bp) per day", "setting": "K562 cells; K562 cells, at 100 μM dT", "value": 204, "unit": "bp per day"},
      {"measurement": "telomere elongation, increase of base pairs (bp) per day", "setting": "K562 cells; K562 cells, at […] dT", "value": 132, "unit": "bp per day"},
      {"measurement": "telomere lengthening in TYMS-knockout cells", "setting": "K562 cells; K562 cells, baseline 16 μM dT, plus 100 μM additional dT or 1 mM dU, 10 days", "value": "responsive to dT to promote telomere lengthening"},
      {"measurement": "dT doses with minimal effects on cell cycle progression", "setting": "wild-type iPSCs", "value": "≤ 50", "unit": "µM"},
      {"measurement": "doses leading to robust telomere elongation in less than 10 days", "setting": "293T cells [4]", "value": "≥ 50", "unit": "µM"},
      {"measurement": "telomere lengthening from dT treatment", "setting": "293T cells [4]; 50 μM dT for eight days, without SAMHD1 knockdown", "value": "~ 470 bp"},
      {"measurement": "telomere elongation after withdrawal of dT", "setting": "293T cells [4]; 100 μM dT withdrawn after 15 days", "value": "aborted telomere elongation"},
      {"measurement": "telomere length, time-course of dT treatment", "setting": "293T cells [4]; 100 μM dT, over 33 days", "value": "gradually and continually increased telomere length"},
      {"measurement": "telomere length", "setting": "293T cells [4]; 100 μM of the indicated deoxynucleoside(s) for 9 days", "value": "rapidly and robustly increases telomere length; also recorded: promoted telomere lengthening, as did dT alone; also recorded: necessary and sufficient for telomere lengthening"},
      {"measurement": "telomere length", "setting": "293T cells [4]; 20 or 40 μM dT, 10 days", "value": "minimal telomere length changes"},
      {"measurement": "telomere length", "setting": "293T cells [4]; 20 or 40 μM dT, 34 days", "value": "robust telomere lengthening"},
      {"measurement": "persistence of long telomere length after dT withdrawal", "setting": "293T cells [4]; 100 micromolar thymidine for 15 days then removed", "value": "more than two weeks"},
      {"measurement": "telomere lengthening following dT with dNTPase-deficient SAMHD1 H215A or K312A variants", "setting": "293T cells [4]; 10 days", "value": "could not restrict telomere lengthening following dT supplementation"},
      {"measurement": "telomere lengthening following dT treatment with overexpression of wild-type SAMHD1", "setting": "293T cells [4]; 10 days, compared to EGFP control", "value": "reduced telomere lengthening following dT treatment"},
      {"measurement": "telomere elongation with dT from different manufacturers", "setting": "293T cells [4]; 10 days, three manufacturers, each of >98% purity", "value": "resulted in telomere elongation similarly"},
      {"measurement": "telomere lengthening upon dT treatment in TK1-edited cells", "setting": "293T cells [4]; CRISPR/Cas9 TK1 edited", "value": "complete abrogation of the telomere lengthening; also recorded: prevented telomere lengthening following dT treatment"},
      {"measurement": "telomere lengthening upon dT treatment in TK2-edited cells", "setting": "293T cells [4]; CRISPR/Cas9 TK2 edited", "value": "no difference in telomere length increases compared to control AAVS1-targeted cells; also recorded: TK2 knockout did not"},
      {"measurement": "telomere lengthening, combined SAMHD1 knockdown and dT treatment", "setting": "293T cells [4]; SAMHD1 targeting shRNA, 50 μM dT for eight days", "value": "~ 800 bp"},
      {"measurement": "telomere elongation, increase of base pairs (bp) per day", "setting": "293T cells [4]; at 100 μM dT", "value": 96, "unit": "bp per day"},
      {"measurement": "telomere elongation, increase of base pairs (bp) per day", "setting": "293T cells [4]; at […] dT", "value": 60, "unit": "bp per day"},
      {"measurement": "telomere lengthening in TYMS-knockout cells", "setting": "293T cells [4]; baseline 16 μM dT, plus 100 μM additional dT or 1 mM dU, 10 days", "value": "responsive to dT to promote telomere lengthening"},
      {"measurement": "lifespan", "setting": "[5]", "value": "increased lifespan in a mouse model of TK2 deficiency"},
      {"measurement": "doses typically used to synchronize cells in S phase", "setting": "cell cycle progression", "value": "1 to 2", "unit": "mM"},
      {"measurement": "telomere lengthening with expression of a nucleoside kinase (dmDNK)", "setting": "[6]", "value": "Enhanced telomere lengthening from the combination of expressing a nucleoside kinase with dT treatment"},
      {"measurement": "GGAAAG repeat content", "setting": "[7]; 100 μM dT, 30 hours, wild-type versus T-free super-telomerase", "value": "an increase in GGAAAG repeat content exclusively in cells expressing T-free telomerase; also recorded: enhanced repeat synthesis by telomerase"},
      {"measurement": "rescue of GGAAAG repeat synthesis following 5FU treatment", "setting": "[7]; dT with 5FU", "value": "could rescue the inhibition of GGAAAG repeat synthesis following 5FU treatment; also recorded: rescued by dT supplementation"}
    ]}
  ]
}
